Source: paper PMC8843100, “Development of newly synthesised quinazolinone-based CDK2 inhibitors with potent efficacy against melanoma” (Journal of Enzyme Inhibition and Medicinal Chemistry, 2022)

Tests used:
A498 = assay: NCI-60 single dose screen, sulforhodamine B; format: cell-based, human; settings: Renal cancer A498; single dose 10^−5 M
Method in brief: (§1)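 Tested once, at 10^−5 M in DMSO, the compounds stayed on the cells for 2 days before SRB staining. A time-zero control, set one day after seeding, lets cell kill be told apart from growth inhibition.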

BT-549 = assay: NCI-60 single dose screen, sulforhodamine B; format: cell-based, human; settings: Breast cancer BT-549; single dose 10^−5 M
Method in brief: as §1

COLO 205 = assay: NCI-60 single dose screen, sulforhodamine B; format: cell-based, human; settings: Colon cancer COLO 205; single dose 10^−5 M
Method in brief: as §1

DU-145 = assay: NCI-60 single dose screen, sulforhodamine B; format: cell-based, human; settings: Prostate cancer DU-145; single dose 10^−5 M
Method in brief: as §1

EKVX = assay: NCI-60 single dose screen, sulforhodamine B; format: cell-based, human; settings: Non-small cell lung cancer EKVX; single dose 10^−5 M
Method in brief: as §1

HCT-116 = assay: NCI-60 single dose screen, sulforhodamine B; format: cell-based, human; settings: Colon cancer HCT-116; single dose 10^−5 M
Method in brief: as §1

HOP-62 = assay: NCI-60 single dose screen, sulforhodamine B; format: cell-based, human; settings: Non-small cell lung cancer HOP-62; single dose 10^−5 M
Method in brief: as §1

HS 578T = assay: NCI-60 single dose screen, sulforhodamine B; format: cell-based, human; settings: Breast cancer HS 578T; single dose 10^−5 M
Method in brief: as §1

HT29 = assay: NCI-60 single dose screen, sulforhodamine B; format: cell-based, human; settings: Colon cancer HT29; single dose 10^−5 M
Method in brief: as §1

K-562 = assay: NCI-60 single dose screen, sulforhodamine B; format: cell-based, human; settings: Leukaemia K-562; single dose 10^−5 M
Method in brief: as §1

KM12 = assay: NCI-60 single dose screen, sulforhodamine B; format: cell-based, human; settings: Colon cancer KM12; single dose 10^−5 M
Method in brief: as §1

LOX IMVI = assay: NCI-60 single dose screen, sulforhodamine B; format: cell-based, human; settings: Melanoma LOX IMVI; single dose 10^−5 M
Method in brief: as §1

MDA-MB-231/ATCC = assay: NCI-60 single dose screen, sulforhodamine B; format: cell-based, human; settings: Breast cancer MDA-MB-231/ATCC; single dose 10^−5 M
Method in brief: as §1

MOLT-4 = assay: NCI-60 single dose screen, sulforhodamine B; format: cell-based, human; settings: Leukaemia MOLT-4; single dose 10^−5 M
Method in brief: as §1

NCI-H226 = assay: NCI-60 single dose screen, sulforhodamine B; format: cell-based, human; settings: Non-small cell lung cancer NCI-H226; single dose 10^−5 M
Method in brief: as §1

NCI-H322M = assay: NCI-60 single dose screen, sulforhodamine B; format: cell-based, human; settings: Non-small cell lung cancer NCI-H322M; single dose 10^−5 M
Method in brief: as §1

NCI-H460 = assay: NCI-60 single dose screen, sulforhodamine B; format: cell-based, human; settings: Non-small cell lung cancer NCI-H460; single dose 10^−5 M
Method in brief: as §1

NCI-H522 = assay: NCI-60 single dose screen, sulforhodamine B; format: cell-based, human; settings: Non-small cell lung cancer NCI-H522; single dose 10^−5 M
Method in brief: as §1

OVCAR-3 = assay: NCI-60 single dose screen, sulforhodamine B; format: cell-based, human; settings: Ovarian cancer OVCAR-3; single dose 10^−5 M
Method in brief: as §1

OVCAR-5 = assay: NCI-60 single dose screen, sulforhodamine B; format: cell-based, human; settings: Ovarian cancer OVCAR-5; single dose 10^−5 M
Method in brief: as §1

SF-539 = assay: NCI-60 single dose screen, sulforhodamine B; format: cell-based, human; settings: CNS cancer SF-539; single dose 10^−5 M
Method in brief: as §1

SK-MEL-28 = assay: NCI-60 single dose screen, sulforhodamine B; format: cell-based, human; settings: Melanoma SK-MEL-28; single dose 10^−5 M
Method in brief: as §1

SNB-19 = assay: NCI-60 single dose screen, sulforhodamine B; format: cell-based, human; settings: CNS cancer SNB-19; single dose 10^−5 M
Method in brief: as §1

SNB-75 = assay: NCI-60 single dose screen, sulforhodamine B; format: cell-based, human; settings: CNS cancer SNB-75; single dose 10^−5 M
Method in brief: as §1

SR = assay: NCI-60 single dose screen, sulforhodamine B; format: cell-based, human; settings: Leukaemia SR; single dose 10^−5 M
Method in brief: as §1

SW-620 = assay: NCI-60 single dose screen, sulforhodamine B; format: cell-based, human; settings: Colon cancer SW-620; single dose 10^−5 M
Method in brief: as §1

TK-10 = assay: NCI-60 single dose screen, sulforhodamine B; format: cell-based, human; settings: Renal cancer TK-10; single dose 10^−5 M
Method in brief: as §1

U251 = assay: NCI-60 single dose screen, sulforhodamine B; format: cell-based, human; settings: CNS cancer U251; single dose 10^−5 M
Method in brief: as §1

UACC-257 = assay: NCI-60 single dose screen, sulforhodamine B; format: cell-based, human; settings: Melanoma UACC-257; single dose 10^−5 M
Method in brief: as §1

UACC-62 = assay: NCI-60 single dose screen, sulforhodamine B; format: cell-based, human; settings: Melanoma UACC-62; single dose 10^−5 M
Method in brief: as §1

UO-31 = assay: NCI-60 single dose screen, sulforhodamine B; format: cell-based, human; settings: Renal cancer UO-31; single dose 10^−5 M
Method in brief: as §1

COc1ccc(N2CCN(CC(=O)Nn3c(COc4ccccc4)nc4ccccc4c3=O)CC2)cc1 [Compound 8c, 2–(4-(4-methoxyphenyl)piperazin-1-yl)-N-(4-oxo-2-(phenoxymethyl)quinazolin-3(4H)-yl)acetamide]
GI% at 10^−5 M (A498): 15.04%
GI% at 10^−5 M (BT-549): – (– means GI < 10%)
GI% at 10^−5 M (COLO 205): – (– means GI < 10%)
GI% at 10^−5 M (DU-145): – (– means GI < 10%)
GI% at 10^−5 M (EKVX): – (– means GI < 10%)
GI% at 10^−5 M (HCT-116): – (– means GI < 10%)
GI% at 10^−5 M (HOP-62): – (– means GI < 10%)
GI% at 10^−5 M (HS 578T): – (– means GI < 10%)
GI% at 10^−5 M (HT29): – (– means GI < 10%)
GI% at 10^−5 M (K-562): – (– means GI < 10%)
GI% at 10^−5 M (KM12): – (– means GI < 10%)
GI% at 10^−5 M (LOX IMVI): – (– means GI < 10%)
GI% at 10^−5 M (MDA-MB-231/ATCC): – (– means GI < 10%)
GI% at 10^−5 M (MOLT-4): – (– means GI < 10%)
GI% at 10^−5 M (NCI-H226): – (– means GI < 10%)
GI% at 10^−5 M (NCI-H322M): – (– means GI < 10%)
GI% at 10^−5 M (NCI-H460): – (– means GI < 10%)
GI% at 10^−5 M (NCI-H522): 10.67%
GI% at 10^−5 M (OVCAR-3): – (– means GI < 10%)
GI% at 10^−5 M (OVCAR-5): – (– means GI < 10%)
GI% at 10^−5 M (SF-539): – (– means GI < 10%)
GI% at 10^−5 M (SK-MEL-28): – (– means GI < 10%)
GI% at 10^−5 M (SNB-19): – (– means GI < 10%)
GI% at 10^−5 M (SNB-75): 26.47%
GI% at 10^−5 M (SR): 12.84%
GI% at 10^−5 M (SW-620): – (– means GI < 10%)
GI% at 10^−5 M (TK-10): – (– means GI < 10%)
GI% at 10^−5 M (U251): – (– means GI < 10%)
GI% at 10^−5 M (UACC-257): – (– means GI < 10%)
GI% at 10^−5 M (UACC-62): – (– means GI < 10%)
GI% at 10^−5 M (UO-31): 10.03%
melting point: 100 to 102 °C
